Measurements from publication PMC4015918, “Conjugation to a SMAC mimetic potentiates sigma-2 ligand induced tumor cell death in ovarian cancer” (Molecular Cancer, 2014).
Entries after “also recorded” stand apart in the source; their conditions may differ.

Key:
[1] = system: ovarian cancer cell lines (SKOV3, OVCAR3, HEY A8, HEY A8 MDR); assay: Cell viability (CellTiter-Glo) in a panel of four ovarian cancer cell lines; format: cell-based; settings: increasing doses, 18 hours
Experimental: (A) SKOV3, (B) OVCAR3 (C) HEY A8 and (D) HEY A8 MDR cells were treated with increasing doses of SW43, SW IV-52, SW43 plus SW IV-52, and SW IV-134 for 18 hours. Cell viability was determined by CellTiter-Glo assays [p < 0.015 (A), NS (B), p < 0.017 (C), p < 0.034 (D), one-way ANOVA].
Cells (1 × 10^4) were seeded into 96 well plates. Treatment as described in the figure legends was initiated the following day. Cell viability was determined 18 hours after treatment using CellTiter-Glo Luminiscent Viability Assay (Promega, Madison, WI). Data were recorded with a SpectraMax Gemini microplate spectrofluorometer, Molecular Devices (Silicon Valley, CA).

SKOV3 cells = assay: Blocking study: competition with uptake of fluorescent sigma-2 ligand SW120, flow cytometry; format: cell-based; settings: SKOV3 cells pretreated 30 min with increasing concentrations, then 10 nM SW120 for 30 min
Experimental: Figure 1 Compound structures and cell binding characteristics of SW IV-134. (A) The chemical structures of sigma-2 ligand SW43, the SMAC peptidomimetic SW IV-52, and the chemical conjugate SW IV-134. Note that the chirality of SW IV-52 is fully retained in the drug conjugate (asterisks). […] SKOV3 cells were pretreated with increasing concentration of SW IV-134, followed by incubation with SW120, prior to analysis by flow cytometry.
SKOV3 cells (3 × 10^4/well) were seeded into 6 cm plates for 24 hours before treatment. The cells were incubated with 5, 10, 50, and 100 μM doses of SW IV-134 for 30 minutes at 37°C. After this step, 10 nM SW120 was added to the cell culture medium containing SW IV-134. After 30 minute incubation at 37°C, cells were washed twice with phosphate buffered saline (PBS) and harvested with 0.05% trypsin EDTA (Life Technologies, Grand Island, NY). The cells were centrifuged at 1000 × g for 5 minutes and pellets washed twice with PBS. Internalization of SW120 was determined by flow cytometer (FACSCalibur, BD Biosciences, San Jose, CA).
Supplementary file 1476-4598-13-50-S2.pdf: Additional file 2: Figure S1 Receptor binding characteristics of the individual components of SW IV-134. SKOV3 cells were pretreated with increasing concentration of (A) SW43 and (B) SW IV-52, followed by incubation with SW120, prior to analysis by flow cytometry. […] Click here for file

[2] = system: mouse 66 (mammary carcinoma) or MDA-MB-435 cells (human melanoma); parameters: method as in PMID 22201533; settings: nude mice bearing mouse 66 or MDA-MB-435 tumors; cited from earlier work

SMILES	Killing activity (cell viability) [1]	Blocking of SW120 uptake (SKOV3 cells)	Tumor-selective uptake of SW120 in vivo [2]
CN[C@@H](C)C(=O)N[C@H](C(=O)N1CCC[C@H]1C(=O)N[C@@H]1CCCc2ccccc21)C(C)(C)C [SW IV-52]	minimal single-agent activity at concentrations up to 200 μM	nearly incapable of blocking the uptake of SW120; also recorded: nearly incapable of interfering with the uptake of SW120	
COc1ccc(C)cc1NC(=O)OC1CC2CCCC(C1)N2CCCCCCCCCCNc1ccc([N+](=O)[O-])c2nonc12 (stereo not drawn) [SW120]			taken up selectively by proliferating tumor cells and not by the generally quiescent peripheral blood mononuclear cells
